Structures can show the parent of a compound that is named as a salt. Values belong to the molecule of their own block, whether it stands above or below them.
Experiments:
[1] = Osmotic pressure of saturated verapamil hydrochloride solution / of the blend of verapamil plus osmotic solute (vapor pressure osmometry); format: physicochemical; settings: for π, osmotic pressure of the blend of Sd plus So: verapamil plus the osmotic solute named in the line
From the text: (§1) The results of the formulation are given in the accompanying table.

[2] = Solubility of verapamil and of osmotic solutes in a common aqueous fluid
From the text: as §1

[3] = Cumulative amount of verapamil released over time from formulations with osmotic solutes; format: physicochemical; settings: verapamil formulated with osmotic solute at equilibrium ratio
From the text: as §1

[4] = in common aqueous fluid with verapamil

Molecule: O=C(O)CC(O)C(=O)O (stereo not drawn) [Malic Acid]
So, solubility of the osmotic solute [2, 4]: 436 mg/mL

Molecule: OC[C@@H](O)[C@@H](O)[C@H](O)[C@H](O)CO [Mannitol]
So, solubility of the osmotic solute ([2]; common aqueous fluid): 219 mg/mL | π, osmotic pressure of the blend of Sd plus So [1]: 42.8 atm

Molecule: O=C(O)CCC(=O)O [Succinic Acid]
π, osmotic pressure of the blend of Sd plus So [1]: 22.9 atm

Molecule: COc1ccc(CCN(C)CCCC(C#N)(c2ccc(OC)c(OC)c2)C(C)C)cc1OC (stereo not drawn) [Verapamil-HCl, verapamil hydrochloride, reference compound]
osmotic pressure of a saturated aqueous solution ([1]; at 37° C., vapor pressure osmometry): 11 atm | π, osmotic pressure ([1]; verapamil-HCl alone): 10.9 atm | π, osmotic pressure ([1]; verapamil-HCl in AGF): 13.0 atm | π, osmotic pressure ([1]; verapamil-HCl in AIF): 13.3 atm

Molecule: COc1ccc(CCN(C)CCCC(C#N)(c2ccc(OC)c(OC)c2)C(C)C)cc1OC (stereo not drawn) [verapamil, reference compound]
osmotic pressure of verapamil in the presence of mannitol ([1]; in the presence of mannitol): raised in the presence of mannitol

Molecule: Insulin: Insulin, listed as osmotic solute in the table
So, solubility of the osmotic solute [2, 4]: 50 mg/mL | ST, total solubility of Sd and So ([2]; verapamil plus osmotic solute in a common aqueous fluid): 197 mg/mL

The next lines start with results.

π, osmotic pressure of the blend of Sd plus So [1]: 13.9 atm
Molecule: O=C(O)CCCCC(=O)O [Adipic Acid]

π, osmotic pressure of the blend of Sd plus So [1]: 76.8 atm
Molecule: O=C1O[C@H]([C@@H](O)CO)C(O)=C1O [Ascorbic Acid]

So, solubility of the osmotic solute [2, 4]: 457 mg/mL | π, osmotic pressure of the blend of Sd plus So [1]: 87.1 atm
Molecule: O=C[C@H](O)[C@@H](O)[C@@H](O)[C@H](O)CO [D-Galactose]

π, osmotic pressure of the blend of Sd plus So [1]: 36.6 atm
Molecule: O=C(O)CCC(=O)O [Disodium Succinate]

So, solubility of the osmotic solute ([2]; common aqueous fluid): 77 mg/mL | π, osmotic pressure of the blend of Sd plus So [1]: 21.4 atm
Molecule: O=C(O)/C=C/C(=O)O [Fumaric Acid]

So, solubility of the osmotic solute ([2]; common aqueous fluid): 81 mg/mL
Molecule: COc1ccccc1OCC(O)CO (stereo not drawn) [Guaifenesin, reference compound]

π, osmotic pressure of the blend of Sd plus So [1]: 20.6 atm
Molecule: O[C@H]1[C@H](O)[C@@H](O)[C@H](O)[C@@H](O)[C@H]1O [Inositol]
cumulative amount of verapamil released over time [3]: insufficient cumulative amount of verapamil released over time

So, solubility of the osmotic solute ([2]; common aqueous fluid): 473 mg/mL | π, osmotic pressure of the blend of Sd plus So [1]: 110.3 atm
Molecule: O=C[C@H](O)[C@@H](O)[C@@H](O)CO [L-Arabinose]

π, osmotic pressure of the blend of Sd plus So [1]: 100.0 atm
Molecule: O=C(O)C(O)C(O)C(=O)O (stereo not drawn) [Sodium Tartrate]

From US4753802A (Alza Corporation, priority 1986, dated 1988)
